The source of these data is patent publication US10150793B2, “Antagonists of CB1 receptor” (INSERM (Institut National de la Santé et de la Recherche …, priority 2011, dated 2018).

A short description of data set [1]: Allopregnanolone and epiallopregnanolone in nucleus accumbens after high dose injection (GC/MS). The note with it: 50 mg/kg; 30 min after the injections. In kind it is in vivo, Wistar rats. The method, then: The capacity of a compound of the invention to be or not to be converted into active pregnenolone downstream derivatives may be evaluated by administering this compound, for example by injecting 50 mg/kg, to a rat, sacrificing the rat 30 min later, measuring the concentration of allopregnanolone and epiallopregnanolone in nucleus accumbens of rat by GC/MS and comparing these concentrations to allopregnanolone and epiallopregnanolone in a rat whose has been injected only a vehicle or pregnenolone.
The concentrations of allopregnanolone and epiallopregnanolone were measured in nucleus accumbens of individual animal by GC/MS 30 min after the injections.

In another data set the test system is TNF-α. Put plainly: Increase in plasma TNF-alpha induced by LPS. In kind it is in vivo, mice. Particulars: pregnenolone 6 mg/kg sc 30 min before LPS; measured 90 min after LPS. The method, then: Trunk blood was collected and centrifuged at 3000 rpm for 15 min at 4° C. Plasma was stored at −80° C. until measurement of TNFα was carried out. Plasma TNFα levels were assessed using an ELISA kit, following the manufacturer's instructions (Fisher Scientific, Catalog #E6473C).
In this example the inventors further analyzed the ability of pregnenolone to inhibit the effects of CB1 activation in the context of inflammation and fibrosis. […] TNF-alpha is one of the cellular responses to inflammatory stimuli more involved in promoting fibrosis.
Other pregnenolone derivatives (Table 4) for which the metabolism in downstream active steroids was reduced were tested for their ability to inhibit: 1. effects of the THC-induced cannabinoid tetrade (decrease in body temperature and in locomotor activity, (THC 10 mg/kg, compounds 6 mg/kg 15-30 min before THC) that is recognized as a sound method to evaluate the activation of the CB1 receptor; 2. THC-induced increase in food intake a typical effect of CB1 activation (THC between 0.5 and 1 mg/kg, compounds between 2 and 4 mg/kg 30 min before THC); 3. the increase in TNFalpha induced by LPS, another effects typical of CB1 […] (compounds 6 mg/kg 15 min before LPS). For each compound and each test independent groups of animals were used (at least n=6 per compound/per test).

Another data set has as its system dopaminergic neurons. Briefly: Coupled in vivo microdialysis and electrophysiology: VTA dopaminergic neuron firing and dopamine outflow in nucleus accumbens. Further details: species or system rats. On the procedure: Surgery and perfusion procedure were performed to allow concomitant electrophysiological and microdialysis monitoring. Briefly, rats were anesthetized using a 2% mixture of isoflurane/air, and a catheter was inserted into the femoral vein for intravenous drug administration. Thereafter, animals were placed in a stereotaxic frame (David Kopf Instruments, Phymep, Paris, France) equipped with a nose mask for constant delivery of the gas anesthesia (2% isoflurane during surgery, 1.5% isoflurane during electrophysiology and microdialysis experiment), and their rectal temperature was monitored and maintained at 37±1° C. by a heating pad (CMA 150, Carnégie Medecin, Phymep). […]
Single unit recording of DA neuronal firing and monitoring of DA extracellular levels were started 2 h after the beginning of probe perfusion (stabilization period). Dialysates (30 μL) were collected on ice every 15 min, and immediately analyzed to determine the baseline values of DA extracellular levels, defined by three consecutive samples in which DA content varied by less than 10% (9). […] DA neuron firing rate was recorded for 3-5 min to obtain the firing baseline, defined by a variation of less than 10% of the average frequency discharge of the DA neuron. […]
In this example the inventors further analyzed the ability of pregnenolone to inhibit the effects of CB1 activation. […]

With `CC(=O)[C@H]1CC[C@H]2[C@@H]3CC=C4C[C@@H](O)CC[C@]4(C)[C@H]3CC[C@]12C` [Pregnenolone, 5-Pregnen-3β-ol-20-one], the “production of allopregnanolone and epiallopregnanolone in nucleus accumbens” value in data set [1] is “allopregnanolone and epiallopregnanolone increased”. In addition, the “effect on increase in TNF-alpha induced by LPS” value in the data set with TNF-α is “halved the increase in TNF-alpha”. Also, the “effect on cocaine-induced increase in activity of the dopaminergic system” value in the data set on dopaminergic neurons (pregnenolone 2 mg/kg sc 30 min before cocaine 0.0125 to 0.8 mg/kg iv cumulative) is listed as “able to antagonize the increase in activity of the dopaminergic system”. The “effect on THC-induced increase in dopamine release and dopaminergic neuron activity” value in the data set with dopaminergic neurons (sc 30 min prior to THC 0.15 to 1.2 mg/kg iv cumulative) was “strongly blunted the increase in dopamine release and in the activity of the dopaminergic neurons”.
